Measurements as given in article PMC10238386, “Serine ADP-ribosylation in Drosophila provides insights into the evolution of reversible ADP-ribosylation signalling” (Nature Communications, 2023).

Experiments:
[1] = molecular target: T1, hPARP1 (Homo sapiens, UniProt P09874, E988Q); test: […] auto-mono-ADP-ribosylation, SDS-PAGE autoradiography; assay type: biochemical; conditions: labelled compound (32P-NAD+); 50 µM NAD+, activated DNA, 2 mM MgCl2, pH 8, room temperature; no HPF1
T1 construct: gene PARP1

[2] = molecular target: T2, hPARP1 (Homo sapiens, UniProt P09874); test: […] auto-ADP-ribosylation (poly-Glu), SDS-PAGE autoradiography; assay type: biochemical; conditions: labelled compound (32P-NAD+); 50 µM NAD+, activated DNA, 2 mM MgCl2, pH 8, room temperature; no HPF1
T2 construct: gene PARP1
T2 sequence (P09874 2-1014): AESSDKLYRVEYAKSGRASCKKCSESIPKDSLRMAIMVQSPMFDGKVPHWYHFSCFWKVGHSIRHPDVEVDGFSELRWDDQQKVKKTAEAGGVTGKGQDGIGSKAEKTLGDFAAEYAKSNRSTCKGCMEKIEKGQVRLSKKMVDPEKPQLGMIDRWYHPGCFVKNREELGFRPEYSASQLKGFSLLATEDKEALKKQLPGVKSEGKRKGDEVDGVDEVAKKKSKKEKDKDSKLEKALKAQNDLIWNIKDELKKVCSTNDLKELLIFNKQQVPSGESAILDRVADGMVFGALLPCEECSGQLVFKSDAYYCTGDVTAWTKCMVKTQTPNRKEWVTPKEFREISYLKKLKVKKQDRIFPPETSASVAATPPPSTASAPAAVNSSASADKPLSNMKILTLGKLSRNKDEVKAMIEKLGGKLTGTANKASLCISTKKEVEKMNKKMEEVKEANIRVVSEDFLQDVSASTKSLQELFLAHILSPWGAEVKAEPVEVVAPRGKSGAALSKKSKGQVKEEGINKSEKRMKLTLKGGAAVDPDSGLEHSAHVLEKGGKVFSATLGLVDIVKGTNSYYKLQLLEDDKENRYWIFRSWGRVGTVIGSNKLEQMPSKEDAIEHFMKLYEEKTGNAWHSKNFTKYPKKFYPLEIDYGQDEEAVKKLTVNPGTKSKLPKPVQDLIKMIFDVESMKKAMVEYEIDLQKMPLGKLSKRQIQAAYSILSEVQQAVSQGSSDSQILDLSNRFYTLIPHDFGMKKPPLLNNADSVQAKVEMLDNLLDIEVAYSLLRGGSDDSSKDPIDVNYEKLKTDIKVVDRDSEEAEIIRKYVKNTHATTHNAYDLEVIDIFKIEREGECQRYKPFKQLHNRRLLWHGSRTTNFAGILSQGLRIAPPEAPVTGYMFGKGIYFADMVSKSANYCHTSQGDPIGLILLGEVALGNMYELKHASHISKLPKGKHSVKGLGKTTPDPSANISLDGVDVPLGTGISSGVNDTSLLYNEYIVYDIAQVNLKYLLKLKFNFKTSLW

T1 sequence (P09874 2-1014 E988Q): as the sequence (P09874 2-1014) above, with E987Q counted along it

## NC(=O)c1ccc[n+]([C@@H]2O[C@H](COP(=O)(O)OP(=O)(O)OC[C@H]3O[C@@H](n4cnc5c(N)ncnc54)[C@H](O)[C@@H]3O)[C@@H](O)[C@H]2O)c1 [NAD^+]
[1]
  32P auto-mono-ADP-ribosylation, SDS-PAGE autoradiography: we generated the mono-ADPr variants using the hPARP1 E988Q mutant
[2]
  32P auto-ADP-ribosylation (poly-Glu), SDS-PAGE autoradiography: recombinant proteins or peptides were ADP-ribosylated by hPARP1 to produce Glu-ADPr
